According to patent publication US7693320B2, “Three time point lung cancer detection, diagnosis and assessment of prognosis” (Yeda Research and Development Co. Ltd., priority 2004, dated 2010):

Assays:
[1] = cited from earlier work
[2] = set-up: species or system patients; conditions: human, in vivo, iv
Description: For example, in a CT application, HU units (Hounsfield Units) measuring signal intensity S(t) are converted to Ultravist 300 concentration units (ml ultravist 300 solution/liter saline). The relationship between the measured signal intensity S(t) in HU and the concentration C(t) of contrast material (in ml per l) is described by: S(t)=p+qC(t) (1) where p and q are parameters to be determined.
Enhancement, E(t), is defined as the difference in signal intensities before and after contrast material injection: E(t)=S(t)−S(t0)=q[C(t)−C(t0)] (2)
The experimental factor that converts HU units to contrast material concentration units can be determined by preparing tubes with different concentrations of Ultravist 300 in normal saline. The tubes can then be scanned by the CT.
For example, for prepared concentrations, C (in ml Ultravist 300 per 1 saline), may be in the range of 0 to 2% (20 ml per l) which is approximately the concentration in the blood after the injection. […] (The dose of 1.5 ml/kg in a 70 kg patient corresponds to ˜20 ml/l, about 2% in blood.)
The contrast agent for the CT was Iopromide (Ultravist 300; Schering) at a dose of 1.5 ml/kg, delivered through the antecubital vein at a rate of 3 ml/sec using an automatic injector (EnVision CT™). The patients were instructed to hold their breath following maximal expiration during the scanning, to decrease movement.
For each patient, the inventors recorded the signal intensity, S, of a central ROI in the aorta before contrast administration and at a selected time point after contrast injection. The inventors in the research study used the relation between HU and concentration units of Ultravist 300 (see above) to convert the measured enhancement to the corresponding concentration in the aorta, Cp(t), assuming similar pharmacokinetics for all patients with normal kidney function. Cp(t) in ml contrast agent per liter blood was fitted to the equation: Cp(t)=D(a1e^−m1^t+a2e^−m2^t) D=dose in ml/kg […] Eq. 3. to obtain: a1=8.48 kg/l, a2=7.34 kg/l, m1=1.43 min^−1, m2=0.1 min^−1.
FIG. 2 illustrates enhancement (as defined in Eq. 2) in the aorta as a function of time after Iopromide (ultravist 300) injection at a dose of 0.15 ml/kg. The decay in the enhancement followed eq. 3 using the concentration to enhancement conversion (equation 2).

COCC(=O)Nc1c(I)c(C(=O)NCC(O)CO)c(I)c(C(=O)N(C)CC(O)CO)c1I (stereo not shown) [Iopromide]
fraction of the dosage excreted in feces ([1]; following IV administration): 1.5% | half-life of distribution in the extracellular space ([1]; following IV administration): 3 min | elimination half-life ([1]; patients of normal kidney function, irrespective of the dose): ~2 h | a1 (amplitude of Cp(t)=D(a1e^-m1t+a2e^-m2t)) [2]: 8.48 kg/L | a2 (amplitude of Cp(t)=D(a1e^-m1t+a2e^-m2t)) [2]: 7.34 kg/L | m1 (decay rate constant of Cp(t)) [2]: 1.43 min⁻¹ | m2 (decay rate constant of Cp(t)) [2]: 0.1 min⁻¹
